What all share (type): in vivo, rat
For test [1], the system named is adenine-induced model of chronic renal failure in rats. The test can be described thus: PTH suppression in adenine-induced chronic renal failure. Conditions: uremic rats, 0.3 or 1 mg/kg SC daily for 2 and 4 weeks. How it is done: (§1) The therapeutic efficacy Ac-c(C)rrarar-NH2, (SEQ ID NO:28) was assessed using an adenine-induced model of chronic renal failure in rats. The rats were obtained from Charles River Laboratories (Wilmington, Mass.). The rats were fed a low protein (2.5%), high phosphorus (0.92%) diet containing 0.75% adenine (Teklad Custom Diet). Animals were randomly assigned to receive daily subcutaneous doses of vehicle (10 mM succinic acid, 0.85% NaCl, 0.9% benzyl alcohol, pH 4.5) or Ac-c(C)rrarar-NH2 (SEQ ID NO:28) at 0.3 or 1 mg/kg (SC) for 4 weeks. A control group was fed the identical high phosphorus diet and tissues without adenine. Treatment was initiated at the start of diet. All experimental procedures with animals were performed according to IACUC guidelines. Statistical analysis was performed using one-way ANOVA with Bonferroni post test. All p-values are nominal.
Plasma PTH was measured using the Immunotopics BioActive Intact ELISA (Immutopics, San Clemente, Calif.). Prior to dosing with Ac-c(C)rrarar-NH2 (SEQ ID NO:28), all treatment groups had similar plasma PTH levels. The no-adenine-control animals maintained consistent plasma PTH levels over the 4 week study.

For test [2] the test system is unchanged. The experiment in a line: Creatinine suppression in adenine-induced chronic renal failure. As to conditions: 4 weeks. On the procedure: as §1
Serum creatinine was measured using QuantiChrom™ kit (BioAssay Systems, Hayward, Calif.). Serum creatinine levels from vehicle-treated uremic animals were approximately 8-10 fold higher compared to the control group of non-uremic animals at the end of the 4 weeks. […] Uremic animals treated with Ac-c(C)rrarar-NH2 (SEQ ID NO:28) at a dose of 1 mg/kg Ac-c(C)rrarar-NH2 (SEQ ID NO:28) had approximately 50% lower serum creatinine levels compared with vehicle-treated controls.

For test [3] the test system is unchanged. The test can be described thus: Vascular calcification (Alizarin Red, von Kossa) in adenine-induced chronic renal failure. Conditions: uremic rats. How it is done:
as §1
The effects of Ac-c(C)rrarar-NH2 (SEQ ID NO:28) treatment of vascular calcification was also determined using adenine-induced rat model of chronic renal failure. After treatment with Ac-c(C)rrarar-NH2 (SEQ ID NO:28) at doses of 0.3 or 1 mg/kg for 4 weeks, the uremic rats were sacrificed and aortic tissue was analyzed. Aortic tissue was processed and stained by Alizarin Red and von Kossa methods to visualize vascular mineralization. Using a scoring system from 0-5, identical sections of von Kossa-stained aorta from all animals were scored in a blinded fashion.

Test [4] shares this test system. The experiment in a line: Parathyroid gland weight in adenine-induced chronic renal failure. As to conditions: 0.3 or 1 mg/kg SC daily for 4 weeks. How it is done:
as §1
The effects of Ac-c(C)rrarar-NH2 (SEQ ID NO:28) treatment on parathyroid gland enlargement was also determined using the adenine-induced rat model of chronic renal failure. After treatment with Ac-c(C)rrarar-NH2 (SEQ ID NO:28) at doses of 0.3 or 1 mg/kg for 4 weeks, the uremic rats were sacrificed and the parathyroid glands were removed, trimmed and weighed.

For test [5] the test system is unchanged. The test can be described thus: Serum phosphorus, calcium and calcium-phosphorus product in adenine-induced chronic renal failure. Conditions: uremic rats. How it is done:
as §1
Phosphorus and calcium were determined using a Cobas c-501 analyzer.

Setting [6] is: 0.3 or 1 mg/kg SC daily for 4 weeks.
The mark [7] stands for this setting: 0.3 and 1 mg/kg SC daily for 4 weeks.

For the substance Ac-c(C)rrarar-NH2, the “plasma PTH versus vehicle-treated animals” value in test [1] is “significantly lower”. The “serum creatinine levels versus vehicle-treated uremic rats” value in test [2] (0.3 and 1 mg/kg SC daily) is “significantly lower”. The “lower serum creatinine levels compared with vehicle-treated controls” value in test [2] (uremic rats, 1 mg/kg SC daily) was “approximately 50%”. In test [3] (0.3 mg/kg treatment group, 4 weeks), the “animals showing aortic mineralization” value is reported as “Only one animal”. Moreover, in test [3] (setting [6]), the “aortic mineralization, Alizarin Red and Von Kossa staining” value is “little or no mineralization”; the “von Kossa staining of aorta” value is on record as “no appreciable von Kossa staining”. Further, in test [4], the “parathyroid gland weight compared to non-uremic animals” value was “not significantly different in weight”. Also, in test [4] (uremic rats), the “parathyroid gland weight compared to vehicle group” value is listed as “significantly reduced in weight”. Further, in test [5] (0.3 mg/kg SC daily for 4 weeks), the “reduction in serum calcium-phosphorus product” value is reported as about 20%. The “reduction in serum calcium-phosphorus product” value in test [5] (1 mg/kg SC daily for 4 weeks) was about 40%. For the same substance, in test [5] (setting [7]), the “serum calcium compared to vehicle-treated rats” value was “significant dose-dependent reduction” and the serum phosphorus levels result was “significant reduction”.

Source of the values: US20140315809A1, “CALCIMIMETICS AND METHODS FOR THEIR USE” (KAI PHARMACEUTICALS INC., priority 2011, published 2014).
